# Experimental data reported in ChEMBL document CHEMBL6078630, “Design, synthesis, and bioactivity investigation of novel cyclic lipopeptide antibiotics targeting top-priority multidrug-resistant gram-negative bacteria” (Eur J Med Chem, 2024).
# Active and inactive are the calls of the source. No cut-off for these calls is given here. Bridge positions count the residues as written; N and C are the ends. Square brackets hold non-standard residues; d marks the D form. Peptide text beside a SMILES is read from it. * marks the point of attachment. Heptanoyl(6-Me) = CC(C)CCCCC(=O)*; Dab = NCC[C@H](N)C(=O)O; Dap = NC[C@H](N)C(=O)O
# What was measured:
# [1] = tested on: Pseudomonas aeruginosa; assay: Antibacterial activity against carbapenem-resistant Pseudomonas aeruginosa clinical isolate ets83 assessed as inhibition of bacterial growth incubated for 24 hrs by CLSI protocol based broth microdilution method; type: functional
# [2] = tested on: Pseudomonas aeruginosa; assay: Potentiation of rifampicin induced antibacterial activity against Pseudomonas aeruginosa ATCC 27853 assessed as rifampicin MIC at 0.008 microg/ml incubated 24 hrs by cation adjusted Mueller-Hinton broth based method; type: functional; details: dose 0.008 µg/ml
# [3] = tested on: Pseudomonas aeruginosa; assay: Potentiation of rifampicin induced antibacterial activity against Pseudomonas aeruginosa ATCC 27853 assessed as rifampicin MIC at 0.016 microg/ml incubated 24 hrs by cation adjusted Mueller-Hinton broth based method; type: functional; details: dose 0.016 µg/ml
# [4] = Protein binding in human plasma assessed as unbound fraction at 0.2 uM incubated for 6 hrs by LC-MS/MS analysis; type: ADME, cell-free
# [5] = tested on: Acinetobacter baumannii; assay: Antibacterial activity against carbapenem-resistant Acinetobacter baumannii clinical isolate ets104 assessed as inhibition of bacterial growth incubated for 24 hrs by CLSI protocol based broth microdilution method; type: functional
# [6] = AUC (0 to infinity) in male Sprague-Dawley rat at 3 mg/kg, iv measured after 24 hrs by LC-MS/MS analysis; type: ADME, organism-based; details: in vivo
# [7] = Nephrotoxicity against Sprague-Dawley rat assessed as increase in CRE level at 4 mg/kg, iv administered for 7 days by fully automated biochemistry analyzer XR200PLUS; type: toxicity, organism-based; details: in vivo, 168 h, time 7 day
# [8] = Nephrotoxicity against Sprague-Dawley rat assessed as increase in BUN level at 4 mg/kg, iv administered for 7 days by fully automated biochemistry analyzer XR200PLUS; type: toxicity, organism-based; details: in vivo, 168 h, time 7 day
# [9] = tested on: Acinetobacter baumannii; assay: Antibacterial activity against carbapenem-resistant Acinetobacter baumannii clinical isolate ets30 assessed as inhibition of bacterial growth incubated for 24 hrs by CLSI protocol based broth microdilution method; type: functional
# [10] = tested on: Klebsiella pneumoniae; assay: Antibacterial activity against carbapenem-resistant Klebsiella pneumoniae clinical isolate KPN+19-15 infected in ICR mouse model administered intravenously with compound at 1 and 6 hrs post-infection and measured after 7 days; type: functional; details: 168 h, route iv, time 7 day
# [11] = tested on: Klebsiella pneumoniae; assay: Antibacterial activity against carbapenem-resistant Klebsiella pneumoniae clinical isolate ets78 assessed as inhibition of bacterial growth incubated for 24 hrs by CLSI protocol based broth microdilution method; type: functional
# [12] = tested on: Escherichia coli; assay: Antibacterial activity against Escherichia coli ATCC BAA-2523 assessed as inhibition of bacterial growth incubated for 16 to 20 hrs by CLSI protocol based broth microdilution method; type: functional; details: time 16-20 hrs
# [13] = tested on: Escherichia coli; assay: Antibacterial activity against carbapenem-resistant Escherichia coli clinical isolate 231016w014 assessed as inhibition of bacterial growth incubated for 24 hrs by CLSI protocol based broth microdilution method; type: functional
# [14] = MRT in male Sprague-Dawley rat at 3 mg/kg, iv measured after 24 hrs by LC-MS/MS analysis; type: ADME, organism-based; details: in vivo
# [15] = tested on: Klebsiella pneumoniae; assay: Antibacterial activity against carbapenem-resistant Klebsiella pneumoniae clinical isolate ets40 assessed as inhibition of bacterial growth incubated for 24 hrs by CLSI protocol based broth microdilution method; type: functional
# [16] = tested on: Pseudomonas aeruginosa; assay: Antibacterial activity against carbapenem-resistant Pseudomonas aeruginosa clinical isolate ets84 assessed as inhibition of bacterial growth incubated for 24 hrs by CLSI protocol based broth microdilution method; type: functional
# [17] = tested on: Pseudomonas aeruginosa; assay: Antibacterial activity against carbapenem-resistant Pseudomonas aeruginosa clinical isolate ets6 assessed as inhibition of bacterial growth incubated for 24 hrs by CLSI protocol based broth microdilution method; type: functional
# [18] = tested on: Acinetobacter baumannii; assay: Antibacterial activity against carbapenem-resistant Acinetobacter baumannii NCTC13304 infected in ICR mouse model administered intravenously with compound at 1 and 6 hrs post-infection and measured after 7 days; type: functional; details: NCTC13304, 168 h, route iv, time 7 day
# [19] = tested on: Escherichia coli; assay: Antibacterial activity against Escherichia coli ATCC BAA-2523 infected in ICR mouse model administered intravenously with compound at 1 and 6 hrs post-infection and measured after 7 days; type: functional; details: ATCC BAA-2523, 168 h, route iv, time 7 day
# [20] = tested on: Acinetobacter baumannii; assay: Antibacterial activity against carbapenem-sensitive Acinetobacter baumannii clinical isolate 19-1 assessed as inhibition of bacterial growth incubated for 16 to 20 hrs by CLSI protocol based broth microdilution method; type: functional; details: time 16-20 hrs
# [21] = tested on: Klebsiella pneumoniae; assay: Antibacterial activity against carbapenem-resistant Klebsiella pneumoniae ATCC BAA-1705 infected in ICR mouse model assessed as survival rate at 2 mg/kg, iv administered at 1 and 6 hrs post-infection and measured after 7 days relative to control; type: functional; details: time 7 day
# [22] = tested on: Acinetobacter baumannii; assay: Antibacterial activity against carbapenem-resistant Acinetobacter baumannii clinical isolate ets171 assessed as inhibition of bacterial growth incubated for 24 hrs by CLSI protocol based broth microdilution method; type: functional
# [23] = tested on: Pseudomonas aeruginosa; assay: Antibacterial activity against carbapenem-resistant Pseudomonas aeruginosa clinical isolate ets55 assessed as inhibition of bacterial growth incubated for 24 hrs by CLSI protocol based broth microdilution method; type: functional
# [24] = tested on: Pseudomonas aeruginosa; assay: Antibacterial activity against carbapenem-resistant Pseudomonas aeruginosa clinical isolate ets49 assessed as inhibition of bacterial growth incubated for 24 hrs by CLSI protocol based broth microdilution method; type: functional
# [25] = tested on: Klebsiella pneumoniae; assay: Antibacterial activity against carbapenem-resistant Klebsiella pneumoniae clinical isolate ets77 assessed as inhibition of bacterial growth incubated for 24 hrs by CLSI protocol based broth microdilution method; type: functional
# [26] = tested on: Pseudomonas aeruginosa; assay: Antibacterial activity against carbapenem-resistant Pseudomonas aeruginosa clinical isolate ets5 assessed as inhibition of bacterial growth incubated for 24 hrs by CLSI protocol based broth microdilution method; type: functional
# [27] = tested on: Pseudomonas aeruginosa; assay: Potentiation of rifampicin induced antibacterial activity against Pseudomonas aeruginosa ATCC 27853 assessed as rifampicin MIC at 0.004 microg/ml incubated 24 hrs by cation adjusted Mueller-Hinton broth based method; type: functional; details: dose 0.004 µg/ml
# [28] = tested on: Acinetobacter baumannii; assay: Antibacterial activity against carbapenem-resistant Acinetobacter baumannii NCTC13304 infected in ICR mouse model assessed as survival rate at 3 mg/kg, iv administered at 1 and 6 hrs post-infection and measured after 7 days relative to control; type: functional; details: NCTC13304, 168 h, time 7 day
# [29] = Half-life in male Sprague-Dawley rat at 3 mg/kg, iv measured after 24 hrs by LC-MS/MS analysis; type: ADME, organism-based; details: in vivo
# [30] = Volume of distribution in male Sprague-Dawley rat at 3 mg/kg, iv measured after 24 hrs by LC-MS/MS analysis; type: ADME, organism-based; details: in vivo
# [31] = C0 in male Sprague-Dawley rat at 3 mg/kg, iv measured after 24 hrs by LC-MS/MS analysis; type: ADME, organism-based; details: in vivo
# [32] = tested on: Pseudomonas aeruginosa; assay: Antibacterial activity against Pseudomonas aeruginosa ATCC 27853 assessed as decrease in bacterial concentration at 0.5 to 2 times of MIC measured after 2 hrs by time-kill kinetics assay; type: functional, organism-based
# [33] = tested on: Cell membrane; assay: Disruption of cell membrane integrity in Pseudomonas aeruginosa ATCC 27853 assessed as morphological changes at 16 microg/ml incubated for 2 hrs by scanning electron microscopic analysis; details: dose 16.0 µg/ml
# [34] = Renal cytotoxicity against HK-2 cells incubated for 72 hrs by CCK8 assay; type: toxicity, cell-based; details: human
# [35] = tested on: Pseudomonas aeruginosa; assay: Antibacterial activity against carbapenem-resistant Pseudomonas aeruginosa clinical isolate ets104 assessed as inhibition of bacterial growth incubated for 24 hrs by CLSI protocol based broth microdilution method; type: functional
smiles,measurement,setting,value
CC(C)CCCCC(=O)N[C@@H](CCN)C(=O)N[C@H](C(=O)N[C@@H](CN)C(=O)N[C@H]1CCNC(=O)[C@H]([C@@H](C)O)NC(=O)[C@H](CCN)NC(=O)[C@H](CCN)NC(=O)[C@H]([C@@H](C)O)NC(=O)[C@@H](Cc2ccccc2)NC(=O)[C@H](CCN)NC1=O)[C@@H](C)O ({Heptanoyl(6-Me)}-[Dab]T[Dap][Dab][Dab][dF]T[Dab][Dab]T; lactam 4-C),MIC,[1],0.5 µg/mL
same,MIC,[2],32 µg/mL
same,MIC,[3],32 µg/mL
same,"fraction unbound at 6 h, 0.2 µM",[4],0.232
same,MIC,[5],0.06 µg/mL
same,AUC(0-inf),[6],8280 ng·h/mL
same,Activity,[7],Non-toxic
same,Activity,[8],Non-toxic
same,MIC,[9],< 0.06 µg/mL
same,ED50,[10],0.38 mg/kg
same,MIC,[11],0.5 µg/mL
same,MIC,[12],≤ 0.03 µg/mL
same,MIC,[13],< 0.06 µg/mL
same,MRT,[14],1.17 h
same,MIC,[15],0.25 µg/mL
same,MIC,[16],0.5 µg/mL
same,MIC,[17],1 µg/mL
same,ED50,[18],0.83 mg/kg
same,ED50,[19],1.86 mg/kg
same,MIC,[20],≤ 0.03 µg/mL
same,Activity,[21],100%
same,MIC,[22],0.5 µg/mL
same,MIC,[23],1 µg/mL
same,MIC,[24],0.06 µg/mL
same,MIC,[25],0.5 µg/mL
same,MIC,[26],1 µg/mL
same,MIC,[27],32 µg/mL
same,survival at 3 mg/kg,[28],100%
same,half-life,[29],2.22 h
same,Vd,[30],0.78 L/kg
same,C0 at 24 h,[31],9810 ng/mL
same,Activity,[32],inactive
same,Activity,[33],Active
same,IC50 at 72 h,[34],> 500 µg/mL
same,MIC,[35],1 µg/mL
